In PubChem BioAssay (NCI):
Several values for one entry are separate records, joined by “and”; a condition that tells them apart may be missing. Equal values may be shown once.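 The compound was tested at five concentrations on cells cultured in 96-well plates, with a 48-hour exposure period. GI50 is the concentration that inhibits growth by half. TGI: concentration producing complete growth inhibition.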

Legend:
Assay in all cases: NCI anticancer screen, dose series, 48 h
[1] = tested on: OVCAR-8 ovarian
[2] = tested on: OVCAR-3 ovarian
[3] = tested on: NCI-H226 lung
[4] = tested on: SK-MEL-28 melanoma
[5] = tested on: PC-3 prostate
[6] = tested on: HCC-2998 colon
[7] = tested on: ACHN renal
[8] = tested on: OVCAR-5 ovarian
[9] = tested on: NCI/ADR-RES ovarian
[10] = tested on: K-562 leukemia

SMILES | GI50 [1] | GI50 [2] | TGI [2] | TGI [3] | GI50 [4] | TGI [4] | TGI [5] | GI50 [6] | TGI [7] | GI50 [8] | TGI [8] | TGI [9] | TGI [10] | TGI [1] | TGI [6] | GI50 [10] | GI50 [3] | GI50 [5] | GI50 [7] | GI50 [9]
COc1cc2c(cc1OC)[C@@H](Nc1ccc(C#N)cc1)C1COC(=O)[C@@H]1C2c1cc(OC)c(O)c(OC)c1 (stereo partly specified) | 0.472 µM and 1.55 µM | 3.26 µM and 5.65 µM | 20 µM and 28.4 µM | 0.298 µM | 3.4 µM and 6.94 µM | 95 µM and > 100 µM | > 100 µM | 0.665 µM and 2.72 µM | 1.01 µM | 0.545 µM and 2.05 µM | 95 µM and > 100 µM | > 100 µM | – | – | – | – | – | – | – | –
c1ccc([P+](CCSCCSCC[P+](c2ccccc2)(c2ccccc2)c2ccccc2)(c2ccccc2)c2ccccc2)cc1 | – | – | > 100 µM | > 100 µM | – | > 100 µM | – | – | > 100 µM | – | > 100 µM | > 100 µM | > 100 µM | > 100 µM | > 100 µM | – | – | – | – | –
COC(=O)c1n[nH]c(C)c1N=NN(C)CCC#N | – | – | 42.2 µM | 35.8 µM | – | > 100 µM | 74.7 µM | – | 25.4 µM | – | – | 36.4 µM | 60 µM | 34.4 µM | 44.1 µM | – | – | – | – | –
CC1=CC(=O)C2=C(C)CCC3C(C)C(=O)OC3C12 (stereo unspecified) | – | – | > 100 µM | > 100 µM | – | > 100 µM | > 100 µM | – | > 100 µM | – | > 100 µM | > 100 µM | – | > 100 µM | > 100 µM | – | – | – | – | –
O=C(Nc1ccc2[nH]nc(-c3ccncc3)c2c1)[C@@H]1CCN(CC(=O)N2CCN(c3ccc(-c4ncccn4)cc3)CC2)C1 | 3.65 µM | > 100 µM | > 100 µM | > 100 µM | – | – | > 100 µM | 0.241 µM | > 100 µM | – | – | > 100 µM | > 73.2 µM | > 100 µM | > 100 µM | 1.96 µM | > 100 µM | 13.7 µM | 2.08 µM | > 100 µM
CC(=O)c1ccc2c(c1)c1cc(C(C)=O)ccc1n2CCNC(C)C | 0.373 µM | 0.506 µM | 3.91 µM | 2.19 µM | 0.326 µM | 1.47 µM | 1.76 µM | 0.635 µM | – | 0.462 µM | 5.56 µM | 8.09 µM | 1.81 µM | 3.87 µM | 4.39 µM | 0.332 µM | 0.281 µM | 0.317 µM | – | 0.371 µM
COc1ccc(C(c2cc(OC)c(OC)c(OC)c2)n2ccnc2)cc1O (stereo unspecified) | – | 0.264 µM | 0.857 µM | > 100 µM | – | – | > 100 µM | 1.72 µM | > 100 µM | 0.648 µM | > 100 µM | > 100 µM | > 100 µM | – | > 100 µM | 0.225 µM | 0.64 µM | 0.384 µM | 0.693 µM | 1.92 µM
COC(=O)C1CCc2c1c(=O)n1c([nH]c3ccccc31)c2C#N (stereo unspecified) | – | – | > 100 µM | > 100 µM | – | > 100 µM | – | – | > 100 µM | – | > 100 µM | – | > 100 µM | > 100 µM | > 100 µM | – | – | – | – | –
CN(C)C=Nc1ccn(CCO)c(=O)n1 | – | – | > 100 µM | > 100 µM | – | > 100 µM | – | – | > 100 µM | – | > 100 µM | – | > 100 µM | > 100 µM | > 100 µM | – | – | – | – | –
O=C(Oc1cccc2cccnc12)c1cc2c(cc1Cl)SC(N(c1ccc(F)cc1)S(=O)(=O)c1ccc(Br)s1)=NS2(=O)=O | – | 8.16 µM | 66.4 µM | > 100 µM | 40.9 µM | > 100 µM | 73.9 µM | 43.5 µM | > 100 µM | 26.6 µM | 94.3 µM | 66.4 µM | > 100 µM | – | > 100 µM | 29.1 µM | 66.4 µM | 21.5 µM | 33.8 µM | 18.2 µM
O=C1NC(Cc2ccc(O)cc2)C(=O)N2CCCC12 (stereo unspecified) | – | – | > 100 µM | > 100 µM | – | > 100 µM | – | – | > 100 µM | – | > 100 µM | – | > 100 µM | > 100 µM | > 100 µM | – | – | – | – | –
O=C(NCCCCCCCCCCCCNC(=O)c1cccc2ccccc12)c1cccc2ccccc12 | – | – | > 67.6 µM | > 82.2 µM | – | > 100 µM | – | – | > 100 µM | – | > 100 µM | – | > 100 µM | > 100 µM | > 100 µM | – | – | – | – | –
CCC(C)CCOC(=O)c1ccc(N=Cc2ccc(C=Nc3ccc(C(=O)OCCC(C)CC)cc3)cc2)cc1 (stereo unspecified) | – | – | > 100 µM | > 100 µM | – | > 100 µM | – | – | > 100 µM | – | > 100 µM | – | > 100 µM | > 100 µM | > 100 µM | – | – | – | – | –
CC1=Nc2ccccc2S/C1=C(/C)NNS(=O)(=O)c1ccc(C)cc1 | – | – | > 100 µM | > 100 µM | – | > 100 µM | – | – | > 100 µM | – | > 100 µM | – | > 100 µM | > 100 µM | > 100 µM | – | – | – | – | –
COc1ccc2c(c1OC)C[C@@H]1c3c(cc4c(c3-2)OCO4)CCN1C | – | – | > 100 µM | 47 µM | – | > 100 µM | 89.2 µM | – | > 100 µM | – | > 100 µM | – | 56.6 µM | > 100 µM | 40.3 µM | – | – | – | – | –
CCOC(=O)C1Cc2c(cc3c4c(cccc24)N(C(C)=O)C3)N(C)C1 (stereo unspecified) | – | – | 3.27 µM | 9.37 µM | – | > 100 µM | > 100 µM | – | > 100 µM | – | > 100 µM | – | > 100 µM | > 100 µM | > 100 µM | – | – | – | – | –
CC(C)c1[nH]nc(C(N)=O)c1N=NN(C)C | – | – | > 100 µM | 71.6 µM | – | > 100 µM | > 100 µM | – | > 100 µM | – | – | > 100 µM | > 100 µM | > 100 µM | > 100 µM | – | – | – | – | –
COC(=O)CCC(NC(=S)N/N=C(\C)c1cnc2ccccc2n1)C(=O)OC (stereo unspecified) | – | – | > 100 µM | > 100 µM | – | > 100 µM | – | – | 89.2 µM | – | 63.4 µM | – | > 100 µM | > 100 µM | > 100 µM | – | – | – | – | –
CN1c2ccccc2N(C(=O)c2ccc([N+](=O)[O-])cc2)C(CC(=O)O)c2cccn21 (stereo unspecified) | – | – | > 100 µM | > 100 µM | – | > 100 µM | – | – | > 100 µM | – | > 100 µM | – | > 100 µM | > 100 µM | > 100 µM | – | – | – | – | –
CCC(C)[C@H]1O[C@]2(CC[C@@H]1C)C[C@@H]1C[C@@H](C/C=C(\C)[C@@H](OC3C[C@H](OC)C(O[C@H]4C[C@H](OC)[C@@H](O)[C@H](C)O4)[C@H](C)O3)[C@@H](C)/C=C/C=C3\CO[C@@H]4[C@H](O)C(C)=C[C@@H](C(=O)O1)[C@]34O)O2 (stereo partly specified) | 3.06 µM | 3.12 µM | 9.3 µM | 3.79 µM | 2.67 µM | 7.21 µM | 12.8 µM | – | 3.48 µM | 2.05 µM | 5.67 µM | 13.7 µM | 15.4 µM | 12.5 µM | – | 3.88 µM | 1.58 µM | 2.64 µM | 1.73 µM | 3.43 µM
